Consider one compound from patent US20040116346A1, “Affinity small molecules for the EPO receptor” (priority 2002, published 2004).

SMILES strings stand for the structures.

One experiment deals with CD34+cells. Put plainly: erythroid colony formation in methylcellulose, CD34+ cells. It is filed as cell-based. To be noted: colonies counted on day 14. The source says:
CD34+cells were isolated and seeded in the presence of compound. The colonies were counted on day 14.

Experiment [1] has as its system carboplatin-treated 8 week old C57BL mice. Put plainly: Carboplatin induced anemia model (hematocrit). It is filed as in vivo, mouse. Particulars: mouse, in vivo. The protocol: Mice were treated with Carboplatin agent (available from Sigma, used regularly in chemotherapy) and a drop in hematocrit was induced. […] (FIGS. 9-11)
Determination of Effect of Non-peptide EPO-R Binding Small Molecule on Hematocrit in Carboplatin-Induced Anemia in 8 Week C57BI Male Mice
Preparation of injection solutions: Vehicle—Saline with 0.1 mg/mL BSA; Add 30 mg of BSA to 300 mL Saline; Vacuum filter under sterile conditions in laminar flow hood; Aliquot the saline (0.1 mg/mL BSA) solution into mini-sorp tubes. At least 41×7 mL aliquots should be prepared. Place caps on the tubes and store refrigerated at 4° C.;
Carboplatin—Dose of 120 mg/kg: Calculations for single injection given to 36 male mice (8 wks old˜25 g): […]×0.025 kg×36 mice=108 mg; Injections are delivered i.p. in a volume of 0.5 cc/mouse=0.5 cc/mouse×36 mice=18 cc; Carboplatin at 6 mg/mL for 36 mice: 108 mg/18 cc.; 120 mg/20 cc; On day of injection, add 120 mg carboplatin (Sigma #C2538) to 20 cc saline in a 100 cc beaker containing a stirring bar. Cover beaker with parafilm. Mix until the carboplatin has completely dissolved.
11 nmole/kg/mouse/day×0.025 kg×12 mice=3.3 nmoles/day; Injections are delivered i.p. in a volume of 0.5 cc/mouse/day=0.5 cc/mouse/day×12 mice=6 cc/day; non-peptide EPO-R binding small molecule for […]: 3.3 nmoles/6 cc each day: 3.85 nmole/7 cc each day; non-peptide EPO-R binding small molecule aliquot at 2 mM=2 nmole/uL; 3.85 nmole per day in 7 cc (0.55 nmole/mL); Therefore: 3.85 nmole divided by 2 nmole/uL stock=1.925 uL at 2 mM; Prepare in advance at least 10 aliquots of non-peptide EPO-R binding small molecule at 2 mM in small microfuge tubes, each with a volume of 2 uL. Freeze these aliquots; On each day of injections, add 1 thawed aliquot of the non-peptide EPO-R binding small molecule at 2 mM containing a 2 uL volume to a tube containing 7 cc of sterile saline (0.1 mg/mL BSA). […]

Consider `Cc1ccc(Cl)cc1Nc1nc2nc(C)c(NCC3CC3)cn2n1` [Compound E5], for which the “cooperation with EPO on erythroid colony formation” value with CD34+cells is given as “cooperation”. The “hematocrit levels in animals treated with carboplatin” value in experiment [1] was “restore hematocrit levels”.
